What was measured:
[1] = Minimum amount of water/ethanol (1.5/4 v/v) required to dissolve the crude salt at boil (recrystallization); assay type: physicochemical
Source text: For comparative purposes, between and among organic salts prepared in this manner and for the purposes of subsequent Example 3, Table 3, crude reaction products were recrystalized from water/ethanol (1.5/4 v/v per gram of salt) using the minimum amount of solvent to effect dissolution at boil.
In the case of succinic acid, the organic acid was dispensed as a half-equivalent in order to generate mitonafide hemisuccinate. […] Crude product that was isolated from the hydrogenation reaction mixture was analyzed for purity by high pressure liquid chromatography (HPLC) according to the conditions described in Table 1 above. The crude product was recrystallized from water/ethanol (1.5/4 v/v) using the minimum amount of solvent required to dissolve the crude product at boil, which is shown in the last column of Table 3 for each salt. The recrystallized product was then analyzed for purity by HPLC.
The purities of the crude salts were assessed by HPLC according to the conditions described in Table 1 above. The crude salts were then recrystallized from the minimum amount of water/ethanol (1.5/4 v/v) using the minimum amount of solvent required to dissolve the crude product at boil, which is shown in the last column of Table 3 for each salt. The resulting purified salts were again assessed for purity.
The hydrochloride and methanesulfonic acid salts of amonafide were prepared according to U.S. Pat. No. 5,420,137. Exemplary procedures are as follows: 3 g of crude amonafide free base, obtained as described in the previous two paragraphs, above, were dissolved under reflux in 60 ml of virtually anhydrous ethanol. Subsequently 1 ml of 35% (1 equivalent, estimated) strength hydrochloric acid was added dropwise while shaking vigorously. After cooling, the resulting crystals were filtered off and washed with 10 ml of anhydrous ethanol. The methanesulfonic acid salt was obtained using the same procedure, but replacing hydrochloric acid with 0.8 ml of methanesulfonic acid. The purity was assessed by HPLC using the conditions described in Table 1. The isolated products were then recrystallized from water/ethanol (1.5/4 v/v) using the minimum amounts of solvent required to dissolve the crude product at boil, which are shown for each salt in Table 3. The resulting purified salts were again assessed for purity.
The hydrochloride salt of amonafide was obtained by the method of Zee-Chang et al., U.S. Pat. No. 4,614,820. Exemplary conditions are as follows: a mixture of the hydrochloride salt of N-(dimethylaminoethyl)-3-nitro-1,8-naphthalimide and 10% palladium-on-charcoal in water was hydrogenated at room temperature under 40 lbs/in^2 of hydrogen for one hour. […] To the mixture was added 3 ml of concentrated hydrochloric acid. It was then filtered and the filtrate was evaporated to dryness under reduced pressure. The residue was triturated with 30 ml of absolute ethanol and filtered. The resulting solid was then washed with ether and dried. The purity was assessed by HPLC using the conditions described in Table 1. The crude product was then recrystallized from water/ethanol (1.5/4 v/v) using the minimum amount of solvent (40 mL/g) required to dissolve the crude product at boil. The resulting purified salts were again assessed for purity.

MCF7 (Breast) = assay: Cytotoxic activity in vitro, percent net growth (SRB/MTT); assay type: cell-based; conditions: MCF7, 48 hours
Experimental: (§1) These cell lines are used by the National Cancer Institute: Developmental Therapeutics Branch in their preliminary screening process for antineoplastic agents. Subsequently, Amonafide Malate was tested against a larger panel of breast, lung and colon cell lines
(§2) Cells were grown in RPMI 1640 medium containing 5% fetal bovine serum and 2 mM L-glutamine. Dependent upon cell doubling time, between 5,000 and 40,000 cells were inoculated into 96 well microtiter plates in a volume of 100 uL per well. The plates were incubated at 37° C., 5% CO2, 95% air, and 100% relative humidity for 24 hours prior to the addition of the experimental drug. After the, 24 hour incubation, two (2) plates of each cell line were fixed in situ with trichloroacetic acid (TCA) to establish the cell population at time of drug addition (Tz).
(§3) Prior to use, the experimental drugs were solubilized in dimethyl sulfoxide at 400-fold the desired final maximum test concentration and frozen. At time of drug addition, an aliquot of frozen concentrate was thawed and diluted to twice the desired final maximum test concentration with complete medium containing 50 ug/ml gentamicin. An additional four (4) 10-fold or ½ log serial dilutions was made for a total of five (5) drug concentrations plus a control. An aliquot of 100 ul of each drug dilution was added to the appropriate well that already contains 100 ul of medium containing the cells. The plates were then incubated for 48 hours at 37° C., 5% CO2; 95% air and 100% relative humidity.
(§4) The number of viable cells was estimated by either a SRB or MTT calorimetric assays.
(§5) For SRB assay, cells were fixed in situ by the gentle addition of 50 ul cold (w/v) TCA (final concentration, 10% TCA) and incubated for 60 minutes at 4° C. The supernatant was discarded, plates washed five (5) times with tap water and air dried. Then Sulforhodamine B (SRB) solution (100 μl) at a 0.4% (w.v.) in 1% acetic acid was added to each well, and the plates incubated for 10 minutes at room temperature. Unbound dye was removed by washing five (5) times with 1% acetic acid and the plates were air dried. The bound stain was solubilized with 10 mM trizma base and the absorbance was read on an automated plate reader at a wavelength of 515 nm.
(§6) The MTT assay measures the ability of viable cells to reduce a tetrazolium salt (MTT) to an insoluble form, a formazan salt. For MTT analysis 20 μl of MTT solution (5 mg/ml in PBS) was added to each well containing cells. The plate was incubated at 37° C. for 5 hours. Media was removed with needle and syringe. 200 μl of DMSO was added to each well and pipetted up and down to dissolve crystals. Plate was placed into a 37° C. incubator for 5 minutes to dissolve air bubbles. Absorbance was read on an automated plate reader at a wavelength of 550 nm.
(§7) Percent net growth inhibition, as shown in FIGS. 2-7, was calculated using the seven absorbance measurements: absorbance by cells at time zero (Tz), absorbance by cells grown in the absence of drug (C), and absorbance of cells grown at the five drug concentrations (Ti). The following expression was used: % Net Growth=[(Ti−Tz)/(C−Tz)]×100 if Ti was greater than or equal to Tz. % Net Growth=[(Ti−Tz)/Tz]×100 if Ti was less than Tz.
(§8) Using the plot of Percent Net Growth as a function of drug concentration, lethality concentration “50%” (LC50), total growth inhibition (TGI) and growth inhibition “50%” (GI50) were determined as follows.

[2] = test system: H460 (Non-Small Cell Lung Cancer); assay: as above; assay type: cell-based; conditions: H460, 48 hours
Experimental: as §1, §2, §3, §4, §5, §6, §7, §8

SF268 (Glioma) = assay: as above; assay type: cell-based; conditions: SF268, 48 hours
Experimental: as §1, §2, §3, §4, §5, §6, §7, §8

[3] = Percent Net Growth -50%, read-out: LC50 (the source's name)

**Q.** For `CN(C)CCN1C(=O)c2cccc3cc(N)cc(c23)C1=O.O=C(O)C[C@H](O)C(=O)O` [Amonafide Malate], which “Solvent” value ([1]; minimum water/ethanol (1.5/4 v/v) to dissolve crude product at boil, salt made by the method in column 2) is on record?
**A.** 7.5 mL/g

**Q.** What about the “recrystallization volume for purification, malate compared with HCl” value ([1]; water/ethanol 1.5/4 v/v) of the same compound?
**A.** 5 times smaller

**Q.** What about the TGI (MCF7 (Breast); Percent Net Growth 0%) of the same compound?
**A.** 110 µM

**Q.** And the GI50 (MCF7 (Breast); Percent Net Growth 50%)?
**A.** 5.16 µM

**Q.** And the CC50 (MCF7 (Breast); [3])?
**A.** 662 µM

**Q.** What about the TGI ([2]; Percent Net Growth 0%) of the same compound?
**A.** 96 µM

**Q.** What about the GI50 ([2]; Percent Net Growth 50%) of the same compound?
**A.** 4.11 µM

**Q.** And the CC50 [2, 3]?
**A.** 170 µM

**Q.** What about the TGI (SF268 (Glioma); Percent Net Growth 0%) of the same compound?
**A.** 154 µM

**Q.** And the GI50 (SF268 (Glioma); Percent Net Growth 50%)?
**A.** 7.7 µM

From patent publication US6989390B2, “Amonafide salts” (priority 2002, dated 2006)
